Results from PMC10706865, “Repurposing Study of 4-Acyl-1-phenylaminocarbonyl-2-substituted-piperazine Derivatives as Potential Anticancer Agents—In Vitro Evaluation against Breast Cancer Cells” (International Journal of Molecular Sciences, 2023).
Where “and” joins values, the source holds several entries; their conditions need not be identical. Equal values may be shown once. Read-outs that look alike come from different tables or passages of the source.

Columns and labels:
[1] = test system: MCF 10A human normal breast cells; assay: MTT cell viability assay, MCF 10A normal breast cells; type: cell-based
Procedure: (§1) To evaluate the cytotoxicity of our compounds against cancer cells, they were evaluated in vitro against MCF7 human breast cancer cells. To examine the selectivity of our compounds, they were also studied against MCF 10A human normal cells. Both cell lines were exposed to different concentrations of our compounds for 72 h before measuring cell viability with the 3-(4,5-dimethylthiazol-2-yl)-2,5-diphenyltetrazolium bromide (MTT) assay (for conditions of the MTT assay, see the Experimental Part, Section 3). Docetaxel, an anticancer drug used in clinics, was tested under the same experimental conditions. Data were obtained from at least two independent experiments and were expressed as means ± standard error of means (SEM). The half-maximal inhibitory concentration (IC50) value of each compound was calculated, and the results are collected in Table 2. To evaluate the selective activity of our compounds, the selectivity index (SI) was also calculated. The curves of cell viability of MCF7 cancer cells and MCF 10A normal cells after the treatment with our compounds are shown (Figure 5, Figure 6, Figure 7, Figure 8 and Figure 9 and Figures S1–S4).
(§2) Exponentially growing cells were seeded into 96-well plates, and drugs were added 24 h later. Each compound was dissolved with DMSO (Panreac Applichem) to prepare a stock solution (100 mM). The working solutions of specific concentrations were prepared via the dilution of the stock solutions in the culture medium and were immediately used to treat the cells. The remaining stock solutions were aliquoted and frozen at −40 °C. We used different aliquots in each independent experiment to avoid the freeze–thaw cycles. Cells were exposed to the drugs for 72 h. After these 72 h, cell viability was determined with the MTT assay or the resazurin assay. These assays are colorimetric techniques that are widely used to determine cell viability.
(§3) The MTT assay is based on the capability of viable cells to transform the MTT salt into a purple formazan dye. After an incubation period of the cells with the MTT and a solubilization step, the quantity of the colored product is measured with a plate reading spectrophotometer. […] The quantity of formazan produced is presumably proportional to the number of viable cells. After seeding for 24 h, cells were treated with the tested drugs for 72 h. Then, medium was removed, and 125 μL of MTT (1 mg/mL in medium) was added to each well for 3–4 h. Subsequently, 80 μL of 20% sodium dodecyl sulfate (Panreac Applichem) in 20 mM hydrochloric acid (Panreac Applichem) was added to dissolve the insoluble purple formazan product, plates were incubated for 10 h at 37 °C, and optical densities were measured at 540 nm on a multiwell plate spectrophotometer reader.
(§4) In both assays, cell viability was expressed as percentage in relation to controls. All data were averaged from at least two independent experiments and were expressed as mean ± standard error of the mean (SEM). Selectivity indices (SI) were calculated by dividing the IC50 values in the nonmalignant cells by those in the cancer cells.

[2] = test system: MCF7 human breast cancer cells; assay: MTT cell viability assay, MCF7 breast cancer cells; type: cell-based; settings: for IC50: MTT assay; for Selectivity Index: IC50 MCF 10A divided by IC50 MCF7, 72 h, MTT
Procedure: as §1, §2, §3, §4

[3] = 72 h exposure, read-out: IC50 (Mean ± SEM; μM) MCF 10A (Normal)
[4] = Homo sapiens, MCF7, 72 h, 72 h exposure, read-out: IC50 (Mean ± SEM; μM) MCF7 (Cancer)
[5] = 72 h exposure, read-out: IC50 (Mean ± SEM; μM) MCF7 (Cancer)

| Structure (SMILES) | IC50 [2, 4] [µM] | IC50 [2, 5] [µM] | IC50 ([2]; Homo sapiens, MCF7, 72 h, docetaxel line in nM, 72 h, read-out: IC50 (Mean ± SEM) MCF7 (Cancer)) [µM] | IC50 [1, 3] [µM] | Selectivity Index [2] | IC50 ([1]; docetaxel line in nM, 72 h, read-out: IC50 (Mean ± SEM) MCF 10A (Normal)) [µM] |
| --- | --- | --- | --- | --- | --- | --- |
| CC1CN(C(=O)C(C)(C)C)CCN1C(=O)Nc1ccc([N+](=O)[O-])cc1 (stereo not drawn) [Compound 7] | 60.8 ± 1.2 | – | – | 38.5 ± 4.6 | 0.6 ± 0.1 | – |
| COc1ccc(NC(=O)N2CCN(C(=O)C(C)(C)C)CC2C)cc1 (stereo not drawn) [Compound 8] | 118 ± 48.7 | – | – | 541 ± 259 | 5.2 ± 3.1 | – |
| CC1CN(C(=O)C(C)(C)C)CCN1C(=S)Nc1ccc([N+](=O)[O-])cc1 (stereo not drawn) [Compound 9] | < 20 | 15.8 ± 8.2 | – | 58.2 ± 18.3 | 4.2 ± 1.0 | – |
| CC1CN(C(=O)c2ccccc2)CCN1C(=O)Nc1ccc([N+](=O)[O-])cc1 (stereo not drawn) [Compound 10] | 26.7 ± 3.3 | – | – | 34.1 ± 1.7 | 1.3 ± 0.1 | – |
| COc1ccc(NC(=O)N2CCN(C(=O)c3ccccc3)CC2C)cc1 (stereo not drawn) [Compound 11] | 359 ± 74.7 | – | – | 478 ± 35.6 | 1.4 ± 0.4 | – |
| CC1CN(C(=O)OC(C)(C)C)CCN1C(=O)Nc1ccc([N+](=O)[O-])cc1 (stereo not drawn) [Compound 12] | 34.6 ± 4.8 | – | – | 84.2 ± 12.4 | 2.4 ± 0.0 | – |
| COc1ccc(NC(=O)N2CCN(C(=O)OC(C)(C)C)CC2C)cc1 (stereo not drawn) [Compound 13] | 250 ± 19.4 | – | – | 915 ± 226 | 3.6 ± 0.6 | – |
| CC1CN(C(=O)OC(C)(C)C)CCN1C(=S)Nc1ccc([N+](=O)[O-])cc1 (stereo not drawn) [Compound 14] | 34.2 ± 0.1 | – | – | 35.6 ± 4.5 | 1.0 ± 0.1 | – |
| CC1CN(C(=O)OC(C)(C)C)CCN1C(=O)Nc1ccc(Cl)cc1 (stereo not drawn) [Compound 15] | 43.4 ± 3.7 | – | – | 170 ± 61.6 | 3.8 ± 1.1 | – |
| CC1CN(C(=O)OC(C)(C)C)CCN1C(=O)Nc1ccc(C(F)(F)F)cc1 (stereo not drawn) [Compound 16] | 31.3 ± 3.6 | – | – | 60.1 ± 19.8 | 1.9 ± 0.4 | – |
| CC1CN(C(=O)OC(C)(C)C)CCN1C(=O)Nc1ccc(C(F)(F)F)c(Cl)c1 (stereo not drawn) [Compound 17] | 22.7 ± 1.6 | – | – | 41.7 ± 4.1 | 1.9 ± 0.2 | – |
| CC1CN(C(=O)c2cc3ccccc3o2)CCN1C(=O)Nc1ccc([N+](=O)[O-])cc1 (stereo not drawn) [Compound 18] | < 20 | 12.1 ± 0.6 | – | 30.4 ± 1.8 | 2.5 ± 0.2 | – |
| CC1CN(C(=O)c2cc3ccccc3o2)CCN1C(=O)Nc1ccc(Cl)cc1 (stereo not drawn) [Compound 19] | 30.5 ± 1.1 | – | – | 261 ± 2.6 | – | – |
| CC1CN(C(=O)c2cc3ccccc3o2)CCN1C(=O)Nc1ccc(C(F)(F)F)cc1 (stereo not drawn) [Compound 20] | 31.7 ± 4.1 | – | – | 244 ± 8.2 | – | – |
| CC1CN(C(=O)c2cc3ccccc3o2)CCN1C(=O)Nc1ccc(C#N)cc1 (stereo not drawn) [Compound 21] | < 20 | 19.4 ± 3.8 | – | 31.2 ± 2.8 | 1.6 ± 0.2 | – |
| CC1CN(C(=O)c2cc3ccccc3o2)CCN1C(=O)Nc1ccccc1[N+](=O)[O-] (stereo not drawn) [Compound 22] | 28.1 ± 1.2 | – | – | 32.4 ± 1.9 | 1.2 ± 0.1 | – |
| CC(C)(C)OC(=O)N1CCN(C(=O)Nc2ccc([N+](=O)[O-])cc2)C(c2ccccc2)C1 (stereo not drawn) [Compound 26] | – | – | – | 71.3 ± 3.6 | 15.2 ± 11.1 | – |

Second part, led by results:

| IC50 [2, 4] [µM] | IC50 [2, 5] [µM] | IC50 ([2]; Homo sapiens, MCF7, 72 h, docetaxel line in nM, 72 h, read-out: IC50 (Mean ± SEM) MCF7 (Cancer)) [µM] | Structure (SMILES) | IC50 [1, 3] [µM] | Selectivity Index [2] | IC50 ([1]; docetaxel line in nM, 72 h, read-out: IC50 (Mean ± SEM) MCF 10A (Normal)) [µM] |
| --- | --- | --- | --- | --- | --- | --- |
| 31.4 ± 5.5 | – | – | COc1ccccc1NC(=O)N1CCN(C(=O)c2cc3ccccc3o2)CC1C (stereo not drawn) [Compound 23] | 74.7 ± 30.2 | 2.3 ± 0.6 | – |
| 25.3 ± 1.6 | – | – | CC1CN(C(=O)c2cc3ccccc3o2)CCN1C(=O)Nc1ccccc1Br (stereo not drawn) [Compound 24] | 33.5 ± 3.5 | 1.3 ± 0.1 | – |
| 48.5 ± 10.1 | – | – | CC1CN(C(=O)c2cc3ccccc3o2)CCN1C(=O)Nc1ccccc1 (stereo not drawn) [Compound 25] | 161 ± 64.6 | 3.2 ± 0.7 | – |
| < 20 | 16.8 ± 4 | – | CC(C)(C)OC(=O)N1CCN(C(=O)Nc2ccc(Cl)cc2)C(c2ccccc2)C1 (stereo not drawn) [Compound 27] | 33.8 ± 6 | 2.2 ± 0.9 | – |
| < 20 | 19.5 ± 3.5 | – | CC(C)(C)OC(=O)N1CCN(C(=O)Nc2ccc(C#N)cc2)C(c2ccccc2)C1 (stereo not drawn) [Compound 28] | 55.2 ± 24.4 | 2.7 ± 0.8 | – |
| 24.8 ± 1.7 | – | – | CC(C)(C)OC(=O)N1CCN(C(=O)Nc2ccc(F)cc2)C(c2ccccc2)C1 (stereo not drawn) [Compound 29] | 56.3 ± 16.5 | 2.2 ± 0.5 | – |
| 24.3 ± 3.4 | – | – | CC(C)(C)OC(=O)N1CCN(C(=O)Nc2ccccc2[N+](=O)[O-])C(c2ccccc2)C1 (stereo not drawn) [Compound 30] | 63.2 ± 10.9 | 2.6 ± 0.1 | – |
| 130 ± 31.4 | – | – | COc1ccc(NC(=O)N2CCN(C(=O)OC(C)(C)C)CC2c2ccccc2)cc1 (stereo not drawn) [Compound 33] | 325 ± 27.6 | 2.6 ± 0.4 | – |
| 24.4 ± 3.1 | – | – | Cc1ccc(NC(=O)N2CCN(C(=O)OC(C)(C)C)CC2c2ccccc2)cc1 (stereo not drawn) [Compound 34] | 68.7 ± 2.8 | 2.9 ± 0.5 | – |
| 41.3 ± 4.2 | – | – | O=C(c1cc2ccccc2o1)N1CCN(C(=O)Nc2ccc(Cl)cc2)C(c2ccccc2)C1 (stereo not drawn) [Compound 36] | 161 ± 16.5 | 4.0 ± 0.9 | – |
| 91.9 ± 35.7 | – | – | O=C(c1cc2ccccc2o1)N1CCN(C(=O)Nc2cc(C(F)(F)F)ccc2Cl)C(c2ccccc2)C1 (stereo not drawn) [Compound 38] | 117 ± 21.1 | 1.4 ± 0.3 | – |
| 226 ± 175 | – | – | O=C(c1cc2ccccc2o1)N1CCN(C(=O)Nc2ccccc2[N+](=O)[O-])C(c2ccccc2)C1 (stereo not drawn) [Compound 39] | > 1000 | >2.5 | – |
| 17.7 ± 5 | < 20 | – | CC1CN(C(=O)c2cc3ccccc3o2)CCN1C(=O)NC12CC3CC(CC(C3)C1)C2 (stereo not drawn) [Compound 41, 4-(Benzofuran-2-carbonyl)-2-methyl-1-[(1-adamantyl)aminocarbonyl]piperazine] | 103 ± 66.9 | 5.1 ± 2.3 and ~ 5 | – |
| – | – | 0.0761 ± 0.0262 | CC(=O)O[C@@]12CO[C@@H]1C[C@H](O)[C@@]1(C)C(=O)[C@H](O)C3=C(C)[C@@H](OC(=O)[C@H](O)[C@@H](NC(=O)OC(C)(C)C)c4ccccc4)C[C@@](O)([C@@H](OC(=O)c4ccccc4)[C@H]21)C3(C)C [Docetaxel, reference compound] | – | ˂1 | < 0.001 |
